Results taken from PubChem BioAssay AID1259407 (Chemical Carcinogenesis Research Information System (CCRIS), 2018).
Calls of active or inactive are those of the source. No rule for the calls is given here.

Test system: CCRIS mutagenicity, Ames/micronucleus/aberration tests
Test: CCRIS mutagenicity studies
[1] = Test System: AMES SALMONELLA TYPHIMURIUM, Strain/Indicator: TA98, Metabolic Activation: NONE, Method: PREINCUBATION
[2] = Test System: AMES SALMONELLA TYPHIMURIUM, Strain/Indicator: TA100, Metabolic Activation: NONE, Method: PREINCUBATION
[3] = Test System: AMES SALMONELLA TYPHIMURIUM, Strain/Indicator: TA98, Metabolic Activation: RAT, LIVER, S-9, PCB, Method: PREINCUBATION
[4] = Test System: AMES SALMONELLA TYPHIMURIUM, Strain/Indicator: TA100, Metabolic Activation: RAT, LIVER, S-9, PCB, Method: PREINCUBATION

COC[CH2][Hg][Cl]
mutagenic call (Test System: AMES SALMONELLA TYPHIMURIUM, Strain/Indicator: TA97, Metabolic Activation: HAMSTER, LIVER, S-9, AROCLOR 1254 (30%), Method: PREINCUBATION): inactive; negative
mutagenic call (Test System: AMES SALMONELLA TYPHIMURIUM, Strain/Indicator: TA97, Metabolic Activation: NONE, Method: PREINCUBATION): inactive; negative
mutagenic call (Test System: AMES SALMONELLA TYPHIMURIUM, Strain/Indicator: TA97, Metabolic Activation: RAT, LIVER, S-9, AROCLOR 1254 (30%), Method: PREINCUBATION): inactive; negative
mutagenic call (Test System: AMES SALMONELLA TYPHIMURIUM, Strain/Indicator: TA98, Metabolic Activation: HAMSTER, LIVER, S-9, AROCLOR 1254 (10%), Method: PREINCUBATION): inactive; negative
mutagenic call (Test System: AMES SALMONELLA TYPHIMURIUM, Strain/Indicator: TA98, Metabolic Activation: HAMSTER, LIVER, S-9, AROCLOR 1254 (30%), Method: PREINCUBATION): inactive; negative
mutagenic call [1]: inactive; negative
mutagenic call (Test System: AMES SALMONELLA TYPHIMURIUM, Strain/Indicator: TA98, Metabolic Activation: RAT, LIVER, S-9, AROCLOR 1254 (10%), Method: PREINCUBATION): inactive; negative
mutagenic call (Test System: AMES SALMONELLA TYPHIMURIUM, Strain/Indicator: TA98, Metabolic Activation: RAT, LIVER, S-9, AROCLOR 1254 (30%), Method: PREINCUBATION): inactive; negative
mutagenic call (Test System: AMES SALMONELLA TYPHIMURIUM, Strain/Indicator: TA100, Metabolic Activation: HAMSTER, LIVER, S-9, AROCLOR 1254 (10%), Method: PREINCUBATION): inactive; negative
mutagenic call (Test System: AMES SALMONELLA TYPHIMURIUM, Strain/Indicator: TA100, Metabolic Activation: HAMSTER, LIVER, S-9, AROCLOR 1254 (30%), Method: PREINCUBATION): inactive; negative
mutagenic call [2]: inactive; negative
mutagenic call (Test System: AMES SALMONELLA TYPHIMURIUM, Strain/Indicator: TA100, Metabolic Activation: RAT, LIVER, S-9, AROCLOR 1254 (10%), Method: PREINCUBATION): inactive; negative
mutagenic call (Test System: AMES SALMONELLA TYPHIMURIUM, Strain/Indicator: TA100, Metabolic Activation: RAT, LIVER, S-9, AROCLOR 1254 (30%), Method: PREINCUBATION): inactive; negative
mutagenic call (Test System: AMES SALMONELLA TYPHIMURIUM, Strain/Indicator: TA1535, Metabolic Activation: HAMSTER, LIVER, S-9, AROCLOR 1254 (10%), Method: PREINCUBATION): inactive; negative
mutagenic call (Test System: AMES SALMONELLA TYPHIMURIUM, Strain/Indicator: TA1535, Metabolic Activation: HAMSTER, LIVER, S-9, AROCLOR 1254 (30%), Method: PREINCUBATION): inactive; negative
mutagenic call (Test System: AMES SALMONELLA TYPHIMURIUM, Strain/Indicator: TA1535, Metabolic Activation: NONE, Method: PREINCUBATION): inactive; negative
mutagenic call (Test System: AMES SALMONELLA TYPHIMURIUM, Strain/Indicator: TA1535, Metabolic Activation: RAT, LIVER, S-9, AROCLOR 1254 (10%), Method: PREINCUBATION): inactive; negative
mutagenic call (Test System: AMES SALMONELLA TYPHIMURIUM, Strain/Indicator: TA1535, Metabolic Activation: RAT, LIVER, S-9, AROCLOR 1254 (30%), Method: PREINCUBATION): inactive; negative
mutagenic call (Test System: AMES SALMONELLA TYPHIMURIUM, Strain/Indicator: TA1537, Metabolic Activation: HAMSTER, LIVER, S-9, AROCLOR 1254 (30%), Method: PREINCUBATION): inactive; negative
mutagenic call (Test System: AMES SALMONELLA TYPHIMURIUM, Strain/Indicator: TA1537, Metabolic Activation: NONE, Method: PREINCUBATION): inactive; negative
mutagenic call (Test System: AMES SALMONELLA TYPHIMURIUM, Strain/Indicator: TA1537, Metabolic Activation: RAT, LIVER, S-9, AROCLOR 1254 (30%), Method: PREINCUBATION): inactive; negative

OCCN1CCNCC1
mutagenic call [1]: inactive; negative
mutagenic call [3]: inactive; negative
mutagenic call [2]: inactive; negative
mutagenic call [4]: inactive; negative

Oc1c(Cl)c(Cl)c(O)c(Cl)c1Cl
mutagenic call (Test System: CHINESE HAMSTER V79 CELLS, Strain/Indicator: V79 CELLS (HPRT)/6-THIOGUANINE, Metabolic Activation: NONE, Method: PREINCUBATION): active; positive
mutagenic call (Test System: CHINESE HAMSTER V-79, Strain/Indicator: V-79/6-THIOGUANINE, Metabolic Activation: NONE, Method: SUSPENSION/PLATE): active; positive
mutagenic call (Test System: CHINESE HAMSTER V-79, Strain/Indicator: V-79/OUABAIN, Metabolic Activation: NONE, Method: SUSPENSION/PLATE): inactive; negative
mutagenic call (Test System: UDS HUMAN FIBROBLASTS, Strain/Indicator: THY INCORP, Metabolic Activation: NONE, Method: AUTORADIOGRAPHY): active; positive

O=C(O)c1oc([N+](=O)[O-])c(-c2ccccc2)c1-c1ccccc1
mutagenic call (Test System: AMES SALMONELLA TYPHIMURIUM, Strain/Indicator: TA98, Metabolic Activation: NONE, Method: STANDARD PLATE): inactive; negative
mutagenic call (Test System: AMES SALMONELLA TYPHIMURIUM, Strain/Indicator: TA100, Metabolic Activation: NONE, Method: STANDARD PLATE): active; positive

CCC(=C(CC)c1ccc(O)cc1)c1ccc(O)cc1
mutagenic call (End Point: IN VITRO MICRONUCLEUS, Test System: CHL/IU CELLS, Metabolic Activation: NONE): active; positive

CC1(C)CC(N)CC(C)(CN)C1 (stereo unspecified)
mutagenic call [1]: inactive; negative
mutagenic call [3]: inactive; negative
mutagenic call [2]: inactive; negative
mutagenic call [4]: inactive; negative
